Here are results for one compound from paper PMC11876772 (Materials Today Bio, 2025).

Each structure is given as a SMILES string.

The test system of data set [1] is TLR7/MyD88/NF-кB and MAPK pathways in BMDCs. Format: cell-based, ICR mice.
Another data set is described as follows: in vitro. Conditions: chicken.

With `CC(C)Cn1cnc2c(N)nc3ccccc3c21` [IMQ, imiquimod], in data set [1], the “protein expression of TLR7 and MyD88 compared with un-treated BMDCs” value was “induced the high protein expression of TLR7 (P < 0.001) and MyD88 (P < 0.001)”. Further, the hemolysis in “in vitro” was approximately 37.5%.
